Where “and” joins values, the source holds several entries; their conditions need not be identical. Equal entries are not always repeated. Where two headings read alike, the source gives them in different places.
What was measured:
Human TOP2A = molecular target: T1, Human TOP2A (Homo sapiens, UniProt P11388); assay: TOP2A DNA decatenation assay (kDNA, agarose gel); format: biochemical; conditions: for inhibition at 30 µM: 1 h, decatenation, 30 μM fixed concentration, read-out: % Inhibition TOP2A (30 μM); for IC50: decatenation dose response
T1 construct: purchased TopoGEN (Buena Vista, CO)
Procedure: Inhibition of TOP2A activity. Human TOP2A, kDNA, and assay buffers were obtained from TopoGEN (Buena Vista, CO). The synthesized compounds were screened for their TOP2A inhibitory activity by the intensity of DNA decatenation bands on a DNA gel when compared to the vehicle. Compounds were initially incubated with TOP2A (3 U/reaction) for 20 min at a 30 μM and 1.2% DMSO concentration in a 37° C. incubator without CO2.
The decatenation reaction was initiated immediately after by adding 2 mM ATP and 35 ng/reaction of kDNA, then incubated for 1 hour in a 37° C. water bath. The samples were loaded into a 0.8% agarose gel in 1× Tris-Borate-EDTA (TBE) at a 0.2 μg/mL ethidium bromide concentration and allowed to run in an electrophoretic chamber for 1 hour at 100V. Compounds with the highest inhibitory activity were selected for 2-fold serial dilution dose-response assays (58.6 nM-30 μM). The dose-response assays followed the same protocol with the exception of 4 U/reaction of TOP2A.
Inhibition studies of TOP2A and observed structure activity relationships (SAR). DNA catenation/decatenation or linking/unlinking of DNA is one of the main TOP2A functions essential for regulating DNA topology, and this is ATP dependent. […] Thus, as a starting point, the synthesized analogs were screened against TOP2A-dependent decatenation using 30 μM fixed concentrations, and the DNA from reactions were resolved on 0.8% agarose gels containing ethidium bromide.
Moreover, these studies provided interesting SAR, which shed light on the potential lead drug target binding interactions and affinity, biological activity, and future drug design optimization with this unique class of TOP2A inhibitors.
(§1) TOP2A decatenation assay. Human TOP2A, kDNA, and assay buffers were obtained from TopoGEN (Buena Vista, CO). The synthesized compounds were screened for their TOP2A inhibitory activity by the intensity of DNA decatenation bands on a DNA gel when compared to the vehicle. Compounds were initially incubated with TOP2A (3 U/reaction) for 20 min at a 30 μM and 1.2% DMSO concentration in a 37° C. incubator without CO2. The decatenation reaction was initiated immediately after by adding 2 mM ATP and 35 ng/reaction of kDNA, then incubated for 1 h in a 37° C. water bath. The samples were loaded into a 0.8% agarose gel in 1× Tris-Borate-EDTA (TBE) at a 0.2 μg/mL ethidium bromide concentration and allowed to run in an electrophoretic chamber for 1 h at 100V. Compounds with the highest inhibitory activity were selected for 2-fold serial dilution dose-response assays (58.6 nM-30 μM). The dose-response assays followed the same protocol with the exception of 4 U/reaction of TOP2A,
as §1, with “assays (53.6” for “assays (58.6”, “of TOP2A.” for “of TOP2A,”

[1] = system: TOP2A-dependent TCF-transcription in SW620-TOP tumor organoids; assay: TCF (TOPflash) reporter assay in 3D tumor organoids; format: cell-based; conditions: SW620-TOP tumor organoids, 72 hours; read-out: IC50 inhibition of TCF-transcription
Procedure: TCF reporter assay in 3D Tumor organoid. Stable engineered cells containing pCDH-TOPflash-luc-EF1-puro were used to generate tumor organoid arrayed in 96-well plates and treated for 72 hours. One-Glo™ luciferase reagent and CellTiter-Glo™ 3D cell viability reagent (Promega) were used to determine the TCF reporter activity in viable cells.
After characterizing 3 and 7 as TOP2A ATP-competitive inhibitors, these compounds were next tested for their ability to inhibit TOP2A-dependent TCF-transcription using the well characterized TOPflash (TOP) luminescent reporter, which was used to generate a stably transduced SW620-TOP reporter cells as described previously (Zhou, et al., Oncogene 2016, 35:4990-9). These cells were used to generate single 3D tumor organoids (700 μm in diameter) uniformly arrayed in 96-well plates, which mimic aspects of tumor function observed in vivo. […] Like neo, the mode of action of compounds 3 and 7 also results in significant antitumor activity (FIGS. 3E-3H). […] In other words, the activity of 3 and 7 is long lasting, suppressing CSC stemness and related tumorigenicity. EMT is a major driving force promoting tumor cell invasion and metastasis. […] Tumor organoids were dissociated, and viable cells were washed and plated into the top chamber of 96-well invasion plate coated with Matrigel and incubated for an additional 72 hours without adding any additional compound. […] Taken together, the biological activity of 3 and 7 is consistent with the activity of neo, inhibiting TOP2A-dependent TCF-transcription that in turn reverses EMT while inhibiting the associated tumorigenic properties of mCRC.
A similar trend in IC50 values was observed compared to TOP2A enzyme studies, further supporting our proposed mechanism of action as inhibition of TOP2A-dependent TCF-transcription.
3D Tumor organoid TOPflash reporter assay. […] 35(38): p. 4990-9.] were used to generate tumor organoids arrayed in 96-well plates and treated for 72 h with TOP2A inhibitors. One-Glo™ luciferase reagent and CellTiter-Glo™ 3D cell viability reagent (Promega, WI) were used to determine the TCF reporter activity in viable cells. Briefly, reagents were added to the spheroids at 1:1 ratio (v:v) and the plates were placed on an orbital shaker (300 rpm) for 10 min at room temperature before the luminescence was read with Envision plate reader (PerkinElmer, MA). TCF reporter activity was normalized to organoid viability and inhibitors treated conditions were normalized to DMSO treated controls.

SW620 tumor organoids = assay: Tumor organoid cytotoxicity / 3D cell viability (CellTox Green); format: cell-based; conditions: Homo sapiens, SW-620, Table 2, 72 hours
Procedure: Tumor organoid cytotoxicity. Fluorescence image-based method: The CellTox™ Green assay (Promega, Madison, WI, USA) was used with 3D tumor organoid to measure spheroid death. 0.1% CellTox™ Green was included in each well at the time of analogs dosing. 10% lysis solution was used as a cell death control. Fluorescence was measured at various time points with 465-510 nm excitation and 520-530 nm emission. Luminescence plate reader method: A 1:1 ratio of CellTiter-Glo™ 3D reagent (Promega) was added to 3D tumor organoid and the plate was shaken at 400 rpm for 30 min before luminescence was read with a PerkinElmer Envision plate reader.
Finally, SW620 tumor organoid cytotoxicity experiments were conducted using the CellTox Green assay, a fluorescence image-based method, to determine whether the inhibition of TCF transcription and effects on EMT are not the result of cytotoxicity. […] All of the analogs tested display IC50 dose response >30 μM and were higher compared to the IC50 values obtained during the downregulation of TCF transcription activity, and the EC50 values obtained for EMT modulation. Thus, the biological effects on TCF-transcription and EMT are not a result of tumor organoid cell death.
(§2) Tumor organoid cytotoxicity. SW620 tumor organoids were grown as previously outlined. CellTox™ Green-Express Cytotoxicity Assay (Promega, WI) solution was prepared per manufacturer's protocol. Briefly, organoids were treated for 72 h with CellTox™ Green Express (0.5×) reagent and various doses of TOP2A inhibitors over a range of 0-to-40 μM. Organoids were then imaged using the Opera Phenix HCS system (PerkinElmer, MA). CellTox™ Green Express was excited at 488 nm and emission was detected at 500-550 nm. Mean intensity of the whole well was utilized for calculating cytotoxicity with Lysis Buffer (Promega, WI, 0.025×) as the 0% viability control and 0.4% DMSO as the 100% viability control. Intensity values were normalized to these controls using GraphPad Prism 7.0 (GraphPad, CA).
as §2, with “CellTox™-Green-Express” for “CellTox™ Green-Express”, “(GraphPad.” for “(GraphPad,”

[2] = Water solubility (stated); format: physicochemical
[3] = Table 1, read-out: % Inhibition TOP2A (IC50 Values)
[4] = read-out: IC50 TOP2A inhibition

T1 sequence (P11388 whole entry): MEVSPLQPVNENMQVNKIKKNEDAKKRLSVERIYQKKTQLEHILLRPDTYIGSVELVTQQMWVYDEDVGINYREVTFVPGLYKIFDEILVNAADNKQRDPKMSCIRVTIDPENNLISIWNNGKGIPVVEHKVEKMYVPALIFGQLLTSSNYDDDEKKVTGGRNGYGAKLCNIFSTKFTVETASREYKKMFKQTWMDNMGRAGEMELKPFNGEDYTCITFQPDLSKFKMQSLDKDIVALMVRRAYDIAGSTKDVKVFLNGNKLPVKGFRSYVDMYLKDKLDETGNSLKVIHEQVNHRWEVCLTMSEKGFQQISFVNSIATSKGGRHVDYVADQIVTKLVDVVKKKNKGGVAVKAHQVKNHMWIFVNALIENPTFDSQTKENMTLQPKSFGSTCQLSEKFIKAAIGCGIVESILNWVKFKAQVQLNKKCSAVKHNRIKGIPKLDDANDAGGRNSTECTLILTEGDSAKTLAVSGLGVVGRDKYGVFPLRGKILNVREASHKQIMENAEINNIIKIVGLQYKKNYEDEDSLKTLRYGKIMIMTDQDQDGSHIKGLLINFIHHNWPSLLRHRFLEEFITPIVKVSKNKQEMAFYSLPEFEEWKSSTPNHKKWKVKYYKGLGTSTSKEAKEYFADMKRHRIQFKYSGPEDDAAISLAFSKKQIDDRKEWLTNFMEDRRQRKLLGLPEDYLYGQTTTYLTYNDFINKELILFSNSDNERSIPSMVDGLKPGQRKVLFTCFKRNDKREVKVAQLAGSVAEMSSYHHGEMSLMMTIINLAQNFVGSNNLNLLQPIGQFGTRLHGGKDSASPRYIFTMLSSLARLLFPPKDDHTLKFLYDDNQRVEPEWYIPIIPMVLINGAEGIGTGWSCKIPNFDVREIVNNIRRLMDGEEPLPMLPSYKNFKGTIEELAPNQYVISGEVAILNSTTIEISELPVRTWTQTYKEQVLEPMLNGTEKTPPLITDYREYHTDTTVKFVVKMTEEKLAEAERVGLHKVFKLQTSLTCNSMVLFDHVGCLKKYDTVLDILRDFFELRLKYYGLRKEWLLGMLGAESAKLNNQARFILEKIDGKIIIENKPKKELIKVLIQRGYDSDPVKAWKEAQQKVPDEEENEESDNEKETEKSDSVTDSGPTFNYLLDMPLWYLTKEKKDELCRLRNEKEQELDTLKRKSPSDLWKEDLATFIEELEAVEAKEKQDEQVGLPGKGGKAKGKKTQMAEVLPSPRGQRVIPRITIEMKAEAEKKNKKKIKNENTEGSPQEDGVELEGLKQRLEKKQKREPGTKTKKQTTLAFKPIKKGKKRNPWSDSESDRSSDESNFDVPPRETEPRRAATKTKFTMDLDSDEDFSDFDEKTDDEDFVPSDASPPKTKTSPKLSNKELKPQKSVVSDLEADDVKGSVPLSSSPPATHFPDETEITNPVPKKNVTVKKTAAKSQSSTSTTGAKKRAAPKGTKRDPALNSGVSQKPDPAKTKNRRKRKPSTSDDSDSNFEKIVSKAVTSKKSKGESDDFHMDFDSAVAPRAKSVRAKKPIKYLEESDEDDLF

| SMILES | inhibition at 30 µM (Human TOP2A; Table 1) | IC50 (Human TOP2A; [3]) | IC50 [1] | IC50 (Human TOP2A; [4]) | TOP2A inhibition, result in words (Human TOP2A; decatenation screen at 30 μM) | IC50 (SW620 tumor organoids) | fold less potent compared to 53 (TOP2A IC50) (Human TOP2A; ratio of TOP2A IC50 values) | water solubility, in words [2] |
| --- | --- | --- | --- | --- | --- | --- | --- | --- |
| CC(=O)Nc1ccc2c(-c3cccs3)ccnc2c1O [Analog 57] | 100% | 2.3 µM | 7 µM | – | – | – | – | – |
| CC(=O)Nc1ccc2c(-c3cc4ccccc4o3)ccnc2c1O [Analog 53] | 100% | – | – | 0.24 µM and 0.2 µM | complete inhibitory activity against TOP2A | > 30 µM | – | – |
| O=C(CCN1CCOCC1)Nc1ccc2c(-c3cc4ccccc4o3)ccnc2c1O [Analog 61] | 83% | 4.1 µM | – | 4 µM | – | – | 20 fold | maintains water solubility |
